Measurements as given in US7030246B2, “Tetrahydroquinoline derivatives as stat6-modulators, preparation and use thereof” (Astrazeneca AB, priority 2001, dated 2006).

Tested on: STAT6 signaling pathway
Test: Inhibition of STAT6-driven reporter gene activity (IL-4 induced luciferase in transfected U937 cells)
Format: cell-based
Conditions: U-937; U937 cells stably transfected with IL-4 responsive luciferase reporter; 10 ng/ml recombinant human IL-4, 4–5 h; compound added 5 min before IL-4; read-out: IC50 (concentration of compound giving 50 percent inhibition of the luciferase response to addition of IL-4)
From the text: The ability of the compounds described herein to inhibit STAT6 signaling pathway is manifested in their ability to inhibit STAT6 driven reporter gene activity.
The cytokine-responsive human cell line U937 were transfected with a reporter gene plasmid consisting of an interluekin 4 (IL-4) responsive promoter driving the heterologous firefly gene for luciferase. The reporter gene plasmid also contained a gene for neomycin resistance. The IL-4 responsive promoter were constructed by four oligomerized combined C/BEPβ and STAT6 binding sites with the nucleotide sequence […] in close contact with a TATA-box. Cells with a stable integration of the reporter gene plasmid were selected by cultivation in neomycin. Such transfected cells were used for IL-4 induction by adding 10 ng/ml recombinant human IL-4 to 0.5–1×10^6 cells per ml. IL-4 induction were carried out for 4–5 h. Thereafter the cells were lysed and luciferase activity determined by using standard techniques. Numbers measured are the mean fold induction (fold induction for U937 is defined as the luciferase response in an IL-4 treated U937 cell sample divided by the luciferase response in an untreated U937 cell sample). Typically, IL-4 stimulation gave 15–20 fold induction of the luciferase response. Compounds were added 5 min before IL-4 when tested in the reporter gene assay. Compound effect was expressed as the concentration of compound giving 50 percent inhibition (IC50) of the luciferase response to addition of IL-4.

| IC50 [nM] | Compound |
| --- | --- |
| 800 | CC(=O)N1c2ccccc2[C@H](Nc2ccc(C)cc2)C[C@@H]1C (relative stereo) [No 27 Table I, (2S*,4R*)-1-Acetyl-2-methyl-N-(4-methylphenyl)-1,2,3,4-tetrahydro-4-quinolinamine] |
| 430 | CC(=O)N1c2ccccc2[C@H](Nc2ccc(C#N)cc2)C[C@@H]1C (relative stereo) [No 36 Table I, 4-{[(2S*,4R*)-1-acetyl-2-methyl-1,2,3,4-tetrahydro-4-quinolinyl]amino}benzonitrile] |
| 180 | CC(=O)N1c2ccc(I)cc2[C@H](Nc2ccccc2)C[C@@H]1C (relative stereo) [No 74 Table I, (2S*,4R*)-1-Acetyl-1,2,3,4-tetrahydro-6-iodo-2-methyl-N-phenyl-4-quinolinamine] |
